# From paper PMC8741257, “Identification of novel non-toxic and anti-angiogenic α-fluorinated chalcones as potent colchicine binding site inhibitors” (Journal of Enzyme Inhibition and Medicinal Chemistry, 2022)
# Key:
# [1] = system: U937 (human leukaemia cells); assay: Antiproliferative activity (CCK-8 assay); format: cell-based; details: U-937, mean ± SD, three separated experiments, 72 h
# Experimental: MCF-7, MGC-803, Hela and HepG-2 cell lines were cultured in a base medium (90% DMEM and 10% FBS), A549 and U937 were cultured in a base medium (90% PRMI-1640 and 10% FBS) at 37 °C, 5% CO2 and a saturated humidity atmosphere. All the mediums were supplemented with 10% FBS and 1% […]/streptomycin (all cells were purchased from Shanghai Institutes for Biological Sciences, Chinese Academy of Sciences, Shanghai, China).
# MGC-803 cells were collected and seeded into 96 well plates at a density of 8000/well. The mediums containing drugs and cell suspension were added into the well. The cells were incubated in 5% CO2 incubator at 37 °C for 72 h. Each well was added 10 µL CCK8 solution, and the incubation time was 3–4 h. The absorbance value at 450 nm was measured by microplate reader. Data are calculated with GraphPad Prism5 software.
# MGC-803 cells = assay: Cell apoptosis assay (Annexin V/PI, flow cytometry); format: cell-based, human; details: 48 h, control 1.99%
# Experimental: According to above-mentioned cell cycle analysis, we suppose that 4c might induce cells apoptosis, like other microtubule polymerisation inhibitors. Thus, the effects of 4c on MGC-803 cell apoptosis were examined by flow cytometry.
# MGC-803 cells at 8 × 10^4 cells/well were seeded in 12-well cell culture plates overnight, and then the cultured cells were incubated with a dose range of compounds 4c for 48 h. The treated or untreated cells were washed twice with PBS and stained by Annexin V-PE and PI for 15 min without light exposure according to the manufacturer’s protocol. Apoptosis was quantified using a flow cytometer (Becton, Dickinson and Company, USA).
# [2] = system: Tg(flk1: EGFP) zebrafish embryos; assay: Zebrafish angiogenesis assay; format: in vivo
# Experimental: Since zebrafish embryos emerged as a powerful model for studying human diseases, the transgenic zebrafish with green fluorescent protein (GFP) labelled endothelial cells have been used extensively for testing angiogenesis in vivo. In this work, an anti-angiogenetic activity of 4c was confirmed by Tg(flk1: EGFP) zebrafish embryos in vivo assay. Fluorescently labelled 3hpf period embryos were treated with different doses of 4c and incubated at 28.5 °C. Until 30hpf, zebrafish was imaged under a fluorescent microscopy to observe the affection of applied agents on intersegmental vessels (ISVs) development. As shown in the Figure 11, ISVs were clearly observed in newly born zebrafish embryos of solvent-treated control group, which were growing at regular longitudinal and equidistant intervals.
# The transgenic flk: enhanced GFP zebrafish embryos were transferred into 6-well plates (n = 30 per well) with 1 ml of aquaculture water (0.2 g/L of Instant Ocean Salt in distilled water) and raised at 28 °C. Then the embryos dechorionated at 12 h post fertilisation (hpf) was treated with the indicated concentrations of 4c or vehicle (DMSO). About 30 embryos were screened for each concentration gradient. At 30hpf, the zebrafish embryos were stripped, anaesthetised, and fixed with agarose gel. The images were taken under the microscope, and the number of blood vessels between the segments was recorded. Results were obtained from three independent determinations and presented as mean ± SD.
# [3] = system: Caspase -3/-7/-9 and PARP in MGC-803 cells; assay: Western blot of apoptosis-related proteins; format: cell-based, human; details: 18, 36 and 72 nM, 48 h
# Experimental: The Caspase family proteins are considered to be critical regulators of cell apoptosis, in which Caspase-3 is one of the most important "executioner" of apoptosis induction, capable of cleaving many important cellular matrices and represent the hallmark of apoptosis. To explore the apoptosis-associated protein alterations, the expression of Caspase -3/-7/-9 and PARP was analysed.
# (§1) The protein levels in MGC-803 cells were assessed via western blot analysis. Exponentially growing MGC-803 cells were seeded at a density of 6 × 10^5/dishes and incubated overnight. Then 18, 36, 72nΜ of 4c were added in triplicate for 48 h incubation. After the cells were washed with cold PBS, the supernatant was removed. The supernatant was collected by centrifuging at 12,000 g for 10 min at 4 °C. The protein concentration in the supernatant was determined by using a BSA protein assay kit. Samples were prepared in SDS-PAGE loading buffer after BSA analysis to quantify proteins, then boiled for 10 min at 100 °C. Western blot analyses were conducted after separation by SDS-PAGE electrophoresis and transfer to nitrocellulose filter (NC) membranes. Immunoblotting was performed according to the antibody manufacturers’ recommendations.
# tubulin = assay: Tubulin polymerisation assay in vitro; format: biochemical; details: 6 µM of 4c; colchicine 4 µM as positive control; fluorescence intensity
# Experimental: The microtubule kinetic experiments were performed with 4 µM of colchicine as a positive control and 6 µM of 4c as the experimental group according to the method originally described by J. M. Andreu et al. with some modifications. Purified and unpolymerised tubulin was incubated with the tested compounds and the increased tendency of fluorescence intensity shown in control samples was obviously slowed down.
# [4] = system: HUVECs (human umbilical vein endothelial cells); assay: Transwell cell invasion assay; format: cell-based; details: 2.5, 5 and 10 µM, 24 h
# Experimental: HUVECs (human umbilical vein endothelial cells) grown on Matrigel were commonly used as a tube formation model for studying the physiological and pathological processes of the vascular system in vitro, and a widely studied human endothelial cell type in angiogenesis. The effect of 4c on endothelial cell migration was assessed by using HUVECs. Standardised wounds were made in confluent monolayers of HUVECs and then exposed to compound 4c at 2.5, 5 and 10 µM for 48 h. […] We further evaluated the capacity of 4 s on endothelial cell invasion using a Transwell assay.
# Matrix gel was thawed overnight at 4 °C. […] Then the cells were washed three times with PBS and fixed cells by 4% paraformaldehyde for 30 min. Subsequently, 0.2% crystal violet solution was added, stained for 30 min, and the invasion of cells was observed under the microscope. Transwell was placed into a 24-well plate, 35% acetic acid (300 μL) was added to the upper chamber of the chamber, and after acetic acid completely entered the lower chamber, 100 μL of acetic acid from the lower chamber was aspirated into a 96-well plate, and three replicate wells of each concentration were shaken for 10 min, and the absorbance was measured at 560 nm with an enzyme marker.
# [5] = system: p-Cdc2, CyclinB1 and P21 in MGC-803 cells; assay: Western blot of G2/M regulatory proteins; format: cell-based, human; details: 18, 36, 72 nM, 48 h
# Excerpt: Cdc2 kinase, a member of Ser/Thr protein family, is considered as a driving force of G2/M transition. Activation of Cdc2 catalysed the phosphorylation of a variety of substrate proteins, thus promoting cell transition from G2 phase to M phase. Cyclin B1 plays a vital role to control cell transition from G2 to M phase. P21 also effectively regulates cell cycle progress by increasing the intracellular G2/M phase ratio. Therefore, the expression of cell cycle checkpoint protein was investigated.
# as §1
smiles,measurement,setting,value
"COc1cc(C(=O)/C(F)=C/c2c[nH]c3cc(Br)ccc23)cc(OC)c1OC [4c, (Z)-3–(6-bromo-1H-indol-3-yl)-2-fluoro-1–(3,4,5-trimethoxyphenyl)prop-2-en-1-one]",IC50,[1],25 ± 1 nM
same,percentage of apoptotic cells,MGC-803 cells; 18 nM (lowest dose),19.12%
same,percentage of apoptotic cells,MGC-803 cells; 72 nM (highest dose),57.99%
same,embryo development and blood vessels,[2]; dose ≥ 5 µM,marked delay in development and only scattered or fragmentary blood vessels were observed
same,lowest dose with anti-angiogenic phenotype,[2]; imaged at 30hpf,2.5 µM
same,number and length of intersegmental vessels (ISVs),"[2]; imaged at 30hpf, different doses",all dose-dependently reduced
same,cleaved Caspase-3/-7/-9 expression,[3],up-regulation of cleaved Caspase-3/-7/-9
same,Effect on tubulin polymerisation in vitro,tubulin,exhibited a similar action to that of colchicine
same,number of cells invaded into lower chamber,[4],gradually decreased in a dose-dependent manner
same,Cyclin B1 expression,[5],caused a decrease in Cyclin B1
same,P21 expression,[5],increased the expression of tumour suppressor protein P21
same,phosphorylation levels of Cdc2,[5],decrease the phosphorylation levels of Cdc2 in a concentration-dependent manner
